Test results from publication PMC9556435 (2022).

Experiments:
[1] = tested on: MYC-G4 (DNA, G4) TGAGGGTGGGTAGGGTGGGTAA; assay: 1H NMR titration; conditions: 50 mM K+; 150 μM DNA, pH 7, 25 °C, DMSO-d6 < 1.5%
[2] = tested on: VEGF-G4 (DNA, G4) CAGGGCGGGCCTTGGGCGGGAT; assay: 1H NMR titration; conditions: 50 mM K+; 150 μM DNA, pH 7, 25 °C, DMSO-d6 < 1.5%
[3] = tested on: KRAS-G4 (Pu24m1) (DNA, G4) TGAGGGCGGTGTGGGAATAGGGAA; assay: CD melting (264 nm); conditions: 15 mM K+; potassium phosphate/KCl, pH 7; 20 μM DNA, 2 equivalents compound
[4] = tested on: KRAS-G4 (Pu24m1) (DNA, G4) TGAGGGCGGTGTGGGAATAGGGAA; assay: NMR solution structure; conditions: 50 mM K+; 1.5 mM DNA, pH 7, DMSO-d6 < 3.5%; stacks on both outer tetrads
[5] = tested on: KRAS-G4 (Pu24m1) (DNA, G4) TGAGGGCGGTGTGGGAATAGGGAA; assay: fluorescence titration; conditions: 50 mM K+; pH 7; 0.2 μM compound fixed, titrated with DNA; 2:1 binding equation

Row | Compound | binding [1] | binding [2] | ΔTm [3] [°C] | binding [4] | Kd [5] [nM]
1 | COc1ccc2cc3[n+](cc2c1OC)CCc1cc2c(cc1-3)OCO2 | yes | yes | 15 | yes | 550
2 | c1c2c(cc3c1OCO3)-c1cc3ccc4c(c3c[n+]1CC2)OCO4 | yes | yes | 19 | yes | 500
